Data set [1] is described as follows: Particle size distribution of Pyroxasulfone prepared in Example 8. It counts as physicochemical. To be noted: product of Example 8 (H2O2/sodium tungstate oxidation, isopropyl alcohol/water treatment).
Data set [2] is described as follows: Bulk density of Pyroxasulfone prepared in Example 8. It counts as physicochemical. To be noted: product of Example 8 (H2O2/sodium tungstate oxidation, isopropyl alcohol/water treatment).

As for `Cn1nc(C(F)(F)F)c(CS(=O)(=O)C2=NOC(C)(C)C2)c1OC(F)F` [Pyroxasulfone, 3-[5-(difluoromethoxy)-1-methyl-3-(trifluoromethyl)pyrazol-4-ylmethylsulfonyl]-4,5-dihydro-5,5-dimethyl-1,2-oxazole], the “Particle Size Distribution: D50” value in data set [1] stood at 113.30 μm. For the same molecule, the Bulk density in data set [2] fell in the range of 0.54 to 0.57 g/mL.

The values above are taken from patent US20240279212A1, “NOVEL INTERMEDIATE FOR PREPARATION OF PYROXASULFONE” (UPL LIMITED, priority 2021, published 2024).
